The supplement of paper PMC10307832

Assays:
Assay in all cases: relative viability (nuclei count vs DMSO), 5 days (fraction); higher = more cells survive
UMC-11 = tested on: UMC-11
In short: (§1)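 Values are medians from duplicate plates. Each reflects relative viability, defined as the nuclei count of treated wells over that of vehicle wells. Lung cancer cell lines in 1536-well plates were pin-tool dosed one day after seeding with one drug alone or with a fixed anchor-drug dose plus five library-drug doses (not always all listed) in √10 steps, then fixed, stained and imaged at 4× after 5 days.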

NCI-H1755 = tested on: NCI-H1755
In short: as §1

NCI-H2347 = tested on: NCI-H2347
In short: as §1

NCI-H2228 = tested on: NCI-H2228
In short: as §1

HCC-366 = tested on: HCC-366
In short: as §1

LCLC-103H = tested on: LCLC-103H
In short: as §1

SK-MES-1 = tested on: SK-MES-1
In short: as §1

NCI-H1792 = tested on: NCI-H1792
In short: as §1

NCI-H1993 = tested on: NCI-H1993
In short: as §1

SW 1573 = tested on: SW 1573
In short: as §1

NCI-H650 = tested on: NCI-H650
In short: as §1

NCI-H1975 = tested on: NCI-H1975
In short: as §1

HCC-827 = tested on: HCC-827
In short: as §1

NCI-H23 = tested on: NCI-H23
In short: as §1

RERF-LC-KJ = tested on: RERF-LC-KJ
In short: as §1

NCI-H2342 = tested on: NCI-H2342
In short: as §1

NCI-H2170 = tested on: NCI-H2170
In short: as §1

NCI-H1915 = tested on: NCI-H1915
In short: as §1

NCI-H1734 = tested on: NCI-H1734
In short: as §1

SK-LU-1 = tested on: SK-LU-1
In short: as §1

LC-2-ad = tested on: LC-2-ad
In short: as §1

NCI-H1355 = tested on: NCI-H1355
In short: as §1

A-427 = tested on: A-427
In short: as §1

Q: Which relative viability (UMC-11; first compound 0.2 µM) does the source give for `Cc1csc(=NC2CCCCC2)n1/N=C/c1ccc(O)c(O)c1O` [MIM1] + CC(=O)c1c(C)c2cnc(Nc3ccc(N4CCNCC4)cn3)nc2n(C2CCCC2)c1=O [Palbociclib] (partner 0.5 µM) here?
A: 0.368

Q: What about the relative viability (UMC-11; first compound 0.6325 µM) of the same compound?
A: 0.318

Q: And the relative viability (UMC-11; first compound 2 µM)?
A: 0.33

Q: And the relative viability (UMC-11; first compound 6.325 µM)?
A: 0.362

Q: And the relative viability (UMC-11; first compound 20 µM)?
A: 0.338

Q: And the relative viability (NCI-H1755; first compound 0.2 µM)?
A: 0.432

Q: What about the relative viability (NCI-H1755; first compound 0.6325 µM) of the same compound?
A: 0.453

Q: What about the relative viability (NCI-H1755; first compound 2 µM) of the same compound?
A: 0.431

Q: And the relative viability (NCI-H1755; first compound 6.325 µM)?
A: 0.419

Q: What about the relative viability (NCI-H1755; first compound 20 µM) of the same compound?
A: 0.306

Q: What about the relative viability (NCI-H2347; first compound 0.2 µM) of the same compound?
A: 0.408

Q: What about the relative viability (NCI-H2347; first compound 0.6325 µM) of the same compound?
A: 0.404

Q: And the relative viability (NCI-H2347; first compound 2 µM)?
A: 0.446

Q: And the relative viability (NCI-H2347; first compound 6.325 µM)?
A: 0.42

Q: What about the relative viability (NCI-H2347; first compound 20 µM) of the same compound?
A: 0.356

Q: And the relative viability (NCI-H2228; first compound 0.2 µM)?
A: 0.835

Q: What about the relative viability (NCI-H2228; first compound 0.6325 µM) of the same compound?
A: 0.646

Q: And the relative viability (NCI-H2228; first compound 2 µM)?
A: 0.899

Q: What about the relative viability (NCI-H2228; first compound 6.325 µM) of the same compound?
A: 0.177

Q: And the relative viability (NCI-H2228; first compound 20 µM)?
A: 0.133

Q: What about the relative viability (HCC-366; first compound 0.2 µM) of the same compound?
A: 0.384

Q: What about the relative viability (HCC-366; first compound 2 µM) of the same compound?
A: 0.236

Q: And the relative viability (HCC-366; first compound 6.325 µM)?
A: 0.127

Q: And the relative viability (HCC-366; first compound 20 µM)?
A: 0.0225

Q: What about the relative viability (LCLC-103H; first compound 0.2 µM) of the same compound?
A: 0.465

Q: And the relative viability (LCLC-103H; first compound 0.6325 µM)?
A: 0.528

Q: What about the relative viability (LCLC-103H; first compound 2 µM) of the same compound?
A: 0.477

Q: What about the relative viability (LCLC-103H; first compound 6.325 µM) of the same compound?
A: 0.482

Q: What about the relative viability (LCLC-103H; first compound 20 µM) of the same compound?
A: 0.389

Q: And the relative viability (SK-MES-1; first compound 0.2 µM)?
A: 0.286

Q: What about the relative viability (SK-MES-1; first compound 0.6325 µM) of the same compound?
A: 0.327

Q: And the relative viability (SK-MES-1; first compound 2 µM)?
A: 0.282

Q: What about the relative viability (SK-MES-1; first compound 6.325 µM) of the same compound?
A: 0.259

Q: And the relative viability (SK-MES-1; first compound 20 µM)?
A: 0.174

Q: What about the relative viability (NCI-H1792; first compound 0.2 µM) of the same compound?
A: 0.659

Q: And the relative viability (NCI-H1792; first compound 0.6325 µM)?
A: 0.622

Q: And the relative viability (NCI-H1792; first compound 2 µM)?
A: 0.644

Q: What about the relative viability (NCI-H1792; first compound 6.325 µM) of the same compound?
A: 0.475

Q: And the relative viability (NCI-H1792; first compound 20 µM)?
A: 0.56

Q: What about the relative viability (NCI-H1993; first compound 0.2 µM) of the same compound?
A: 0.624

Q: What about the relative viability (NCI-H1993; first compound 0.6325 µM) of the same compound?
A: 0.706

Q: What about the relative viability (NCI-H1993; first compound 2 µM) of the same compound?
A: 0.659

Q: And the relative viability (NCI-H1993; first compound 6.325 µM)?
A: 0.514

Q: And the relative viability (NCI-H1993; first compound 20 µM)?
A: 0.349

Q: What about the relative viability (SW 1573; first compound 0.2 µM) of the same compound?
A: 0.412

Q: What about the relative viability (SW 1573; first compound 0.6325 µM) of the same compound?
A: 0.501

Q: What about the relative viability (SW 1573; first compound 2 µM) of the same compound?
A: 0.365

Q: What about the relative viability (SW 1573; first compound 6.325 µM) of the same compound?
A: 0.325

Q: What about the relative viability (SW 1573; first compound 20 µM) of the same compound?
A: 0.148

Q: And the relative viability (NCI-H650; first compound 0.2 µM)?
A: 0.372

Q: What about the relative viability (NCI-H650; first compound 0.6325 µM) of the same compound?
A: 0.359

Q: What about the relative viability (NCI-H650; first compound 2 µM) of the same compound?
A: 0.317

Q: What about the relative viability (NCI-H650; first compound 6.325 µM) of the same compound?
A: 0.366

Q: What about the relative viability (NCI-H650; first compound 20 µM) of the same compound?
A: 0.159

Q: What about the relative viability (NCI-H1975; first compound 0.2 µM) of the same compound?
A: 0.529

Q: And the relative viability (NCI-H1975; first compound 0.6325 µM)?
A: 0.67

Q: What about the relative viability (NCI-H1975; first compound 2 µM) of the same compound?
A: 0.519

Q: What about the relative viability (NCI-H1975; first compound 6.325 µM) of the same compound?
A: 0.256

Q: What about the relative viability (NCI-H1975; first compound 20 µM) of the same compound?
A: 0.169

Q: And the relative viability (HCC-827; first compound 0.2 µM)?
A: 0.443

Q: And the relative viability (HCC-827; first compound 0.6325 µM)?
A: 0.511

Q: And the relative viability (HCC-827; first compound 2 µM)?
A: 0.454

Q: What about the relative viability (HCC-827; first compound 6.325 µM) of the same compound?
A: 0.307

Q: And the relative viability (HCC-827; first compound 20 µM)?
A: 0.227

Q: And the relative viability (NCI-H23; first compound 0.2 µM)?
A: 0.518

Q: What about the relative viability (NCI-H23; first compound 0.6325 µM) of the same compound?
A: 0.51

Q: What about the relative viability (NCI-H23; first compound 2 µM) of the same compound?
A: 0.413

Q: And the relative viability (NCI-H23; first compound 6.325 µM)?
A: 0.19

Q: And the relative viability (NCI-H23; first compound 20 µM)?
A: 0.194

Q: What about the relative viability (RERF-LC-KJ; first compound 0.2 µM) of the same compound?
A: 0.952

Q: And the relative viability (RERF-LC-KJ; first compound 0.6325 µM)?
A: 0.995

Q: And the relative viability (RERF-LC-KJ; first compound 2 µM)?
A: 0.686

Q: What about the relative viability (RERF-LC-KJ; first compound 6.325 µM) of the same compound?
A: 0.613

Q: What about the relative viability (RERF-LC-KJ; first compound 20 µM) of the same compound?
A: 0.227

Q: What about the relative viability (NCI-H2342; first compound 0.2 µM) of the same compound?
A: 0.525

Q: What about the relative viability (NCI-H2342; first compound 0.6325 µM) of the same compound?
A: 0.543

Q: What about the relative viability (NCI-H2342; first compound 2 µM) of the same compound?
A: 0.573

Q: What about the relative viability (NCI-H2342; first compound 6.325 µM) of the same compound?
A: 0.515

Q: What about the relative viability (NCI-H2342; first compound 20 µM) of the same compound?
A: 0.57

Q: What about the relative viability (NCI-H2170; first compound 0.2 µM) of the same compound?
A: 0.38

Q: And the relative viability (NCI-H2170; first compound 0.6325 µM)?
A: 0.398

Q: What about the relative viability (NCI-H2170; first compound 2 µM) of the same compound?
A: 0.373

Q: And the relative viability (NCI-H2170; first compound 6.325 µM)?
A: 0.227

Q: What about the relative viability (NCI-H2170; first compound 20 µM) of the same compound?
A: 0.142

Q: What about the relative viability (NCI-H1915; first compound 0.2 µM) of the same compound?
A: 0.527

Q: What about the relative viability (NCI-H1915; first compound 0.6325 µM) of the same compound?
A: 0.529

Q: And the relative viability (NCI-H1915; first compound 2 µM)?
A: 0.497

Q: And the relative viability (NCI-H1915; first compound 6.325 µM)?
A: 0.395

Q: What about the relative viability (NCI-H1915; first compound 20 µM) of the same compound?
A: 0.181

Q: What about the relative viability (NCI-H1734; first compound 0.2 µM) of the same compound?
A: 0.32

Q: What about the relative viability (NCI-H1734; first compound 0.6325 µM) of the same compound?
A: 0.361

Q: What about the relative viability (NCI-H1734; first compound 2 µM) of the same compound?
A: 0.34

Q: And the relative viability (NCI-H1734; first compound 6.325 µM)?
A: 0.322

Q: What about the relative viability (NCI-H1734; first compound 20 µM) of the same compound?
A: 0.193

Q: And the relative viability (SK-LU-1; first compound 0.2 µM)?
A: 0.442

Q: What about the relative viability (SK-LU-1; first compound 0.6325 µM) of the same compound?
A: 0.397

Q: And the relative viability (SK-LU-1; first compound 2 µM)?
A: 0.368

Q: What about the relative viability (SK-LU-1; first compound 6.325 µM) of the same compound?
A: 0.418

Q: And the relative viability (SK-LU-1; first compound 20 µM)?
A: 0.307

Q: And the relative viability (LC-2-ad; first compound 0.2 µM)?
A: 0.463

Q: What about the relative viability (LC-2-ad; first compound 0.6325 µM) of the same compound?
A: 0.471

Q: And the relative viability (LC-2-ad; first compound 2 µM)?
A: 0.502

Q: What about the relative viability (LC-2-ad; first compound 6.325 µM) of the same compound?
A: 0.289

Q: And the relative viability (LC-2-ad; first compound 20 µM)?
A: 0.182

Q: What about the relative viability (NCI-H1355; first compound 0.2 µM) of the same compound?
A: 0.391

Q: What about the relative viability (NCI-H1355; first compound 0.6325 µM) of the same compound?
A: 0.371

Q: And the relative viability (NCI-H1355; first compound 2 µM)?
A: 0.41

Q: And the relative viability (NCI-H1355; first compound 6.325 µM)?
A: 0.385

Q: What about the relative viability (NCI-H1355; first compound 20 µM) of the same compound?
A: 0.288

Q: What about the relative viability (A-427; first compound 0.2 µM) of the same compound?
A: 0.523

Q: And the relative viability (A-427; first compound 0.6325 µM)?
A: 0.471

Q: And the relative viability (A-427; first compound 2 µM)?
A: 0.545

Q: What about the relative viability (A-427; first compound 6.325 µM) of the same compound?
A: 0.473

Q: What about the relative viability (A-427; first compound 20 µM) of the same compound?
A: 0.337
